Results as given in patent US20080072494A1, “Micronutrient elicitor for treating nematodes in field crops” (priority 2006, published 2008).

Tests used:
[1] = format: physicochemical
Excerpt: Chitin/chitosan occurs naturally in a range from 100% chitin to 100% chitosan as a mixed polymer. […] Below is data showing that the micronutrient of the present invention outperforms chitin/chitosan as an elicitor of self-protecting enzymes.

β-1,3-glucanase = β-1,3-glucanase elicitation in germinating mung beans after seed treatment (laminarin substrate); format: in vivo; settings: mung bean seeds, 0.5, 0.05 and 0.005 mg/seed; higher doses gave lower activities
Method: Enzyme activity measurements relate to the level of a given enzyme protein in the plant tissue. As an example of enhanced enzyme activity, β-1,3-glucanase was measured. The enzyme, β-1,3-glucanase, was assayed using laminarin (a soluble β-1,3-glucan) as substrate. Crude homogenates of the seedlings from treated seeds yielded the data in FIG. 1. Increased β-1,3-glucanase activity compared to controls (without seed treatment) was obtained in the micronutrient of the present invention treatments ten days following germination. Elicitation of mung beans seeds that were treated with the micronutrient of the present invention were compared to those treated with two types of elicitors. First, various concentrations of purified colloidal chitin/chitosan were used. […] Secondly, lower concentrations of the chitin oligosaccharide containing six glycan moieties, N-acetylchitohexaose were studied. The importance of the chitin oligosaccharide is that short chains of chitin have been found optimal in elicitation of many types of plants. […] Comparisons similar to those with chitin/chitosan could be made between the performance of 1 mg/seed micronutrient of the present invention and lower concentrations of the more optimal oligosaccharide.

water solubility [1]	dose response relationship of β-1,3-glucanase specific activity (β-1,3-glucanase)	Compound
not water soluble		chitin/chitosan
	negative	CC(=O)N[C@H]1[C@H](O[C@H]2[C@H](O)[C@@H](NC(C)=O)[C@H](O[C@H]3[C@H](O)[C@@H](NC(C)=O)C(O)O[C@@H]3CO)O[C@@H]2CO)O[C@H](CO)[C@@H](O[C@@H]2O[C@H](CO)[C@@H](O[C@@H]3O[C@H](CO)[C@@H](O[C@@H]4O[C@H](CO)[C@@H](O)[C@H](O)[C@H]4NC(C)=O)[C@H](O)[C@H]3NC(C)=O)[C@H](O)[C@H]2NC(C)=O)[C@@H]1O (some centres unmarked) [N-acetylchitohexaose]
